{
  "source": "patent US4762706A",
  "about": "“Peptide antibodies and their use in detecting oncogene products” (priority 1984, dated 1988)",
  "molecular_target": "T1, v-Ki-ras p21 protein (serine at position 12) (Kirsten murine sarcoma virus, UniProt P01117)",
  "T1 construct": "made in house; host or cells: E. coli (plasmid pINIII-ras, a gift; lac promoter, IPTG induction)",
  "T1 sequence (P01117 whole entry)": "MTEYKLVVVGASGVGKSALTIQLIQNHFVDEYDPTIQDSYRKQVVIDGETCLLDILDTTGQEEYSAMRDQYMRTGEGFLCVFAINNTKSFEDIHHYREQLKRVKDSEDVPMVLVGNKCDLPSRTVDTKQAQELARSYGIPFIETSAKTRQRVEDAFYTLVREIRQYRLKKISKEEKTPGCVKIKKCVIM",
  "assay": "Inhibition by nucleotide of anti-p21ser antibody binding to p21 protein (immunoprecipitation under mild denaturation conditions)",
  "settings": "high concentrations (10 mM) of nucleotide",
  "from_the_text": "In this example the antibody was used to immunoprecipitate a form of p21 protein which is known to contain serine at position 12. This protein is a E. coli expressing v-Ki-ras p21 protein (produced using a plasmid pINIII-ras which was constructed by and was a gift from M. Inouge of SUNY at Stony Brook, New York in which transcription was directed by the lac promoter--see Masui, Y. et al., in Experimental Manipulation of Gene Expression, M. Inogue, ed., Academic Press, N.Y., pp 15-32 (1983). Expression of this protein was induced by treatment of the cultures with 2 mM isopropylthiogalactoside (IPTG). Cell pellets were resuspended in 50 mM glucose, 25 mM Tris.HCl pH 8.0, 10 mM EDTA, 2 mg/ml lysozyme, and 0.01% aprotinin, and were then incubated for 30 minutes at 4° C. Triton X-100 was added to 1% concentration for 5 additional minutes. Following a 10-minute 15,000 xg spin, the supernatant was spun for an additional 2 hours at 150,000 xg to prepare the cleared lysate. One hundred-μl samples of the cleared cell lysate were incubated with 40 μCi ^32 P gamma-labeled guanosine triphosphate (GTP) for 30 minutes at 37° C. […] Immune complexes were washed with 0.5% NP40, 1M LiCl, 50 mM Tris.HCl, pH 8.0, 120 mM NaCl, and analyzed by SDS-PAGE. […]",
  "data": [
    {"smiles": "Nc1nc2c(ncn2[C@@H]2O[C@H](COP(=O)(O)OP(=O)(O)OP(=O)(O)O)[C@@H](O)[C@H]2O)c(=O)[nH]1", "note": "[GTP, guanosine triphosphate]", "values": [
      {"measurement": "inhibition of the binding of anti-p21ser antibodies to p21 protein", "result": "substantially inhibit"}
    ]}
  ]
}
